The source of these data is patent publication US20150174283A1, “Smart, Self-Decontaminating Polymer and Method for Inhibiting The Growth Of A Bacteria and Fungus” (priority 2012, published 2015).

The subject of series [1] is Staphylococcus aureus. The experiment in a line: S. aureus growth on TSA plates with or without hydroxylamine and polymer foams. It is filed as cell-based. Particulars: TSA plates containing 500 uM HA, no polymer, 18 hours, 37 C. From the text: The microorganism, Staphylococcus aureus (S. aureus/Staph), was utilized. Staphylococcus aureus is an important bacterium to study and ultimately have the ability to inhibit, as Staphlococcus can cause a number of diseases as a result of infection. The strain Methicillin-resistant Staphylococcus aureus or MRSA is a multi-drug resistant bacterium, making any MRSA infection difficult to treat with standard antibiotics and is thus a more dangerous infection; the number of drug-resistant MRSA cases has increase by 90% over the past decade. MRSA is the most significant infection encountered in hospital settings, costing US hospitals $3.2 to 4.2 billion annually to treat infected patients. Patients with MRSA infections often require longer hospital stays and more time spent in intensive care units. […]

The test system of series [2] is host cells. Particulars: cited from earlier work.
The nature of series [3]: chlorination of thionin by enzymes in solution (bleaching followed at 598 nm). It is filed as biochemical. The note with it: substrate glucose.
Experimental: The chlorinating activity of composite polymers was measured by following the chlorination of a colored substrate (thionin). The thionin is a blue-violet dye that absorbs at 598 nm and undergoes bleaching (to colorless) upon chlorination. A battery of tests were carried out in 100 mM phosphate citrate buffer at pH 4.0. […] The reaction mixture comprised 1.45 mL of the thionin/NaCl solution, 30 μL of the substrate solution (glucose or peroxide), and 25 μL of the enzyme solution (total). Buffer was used to replace the enzyme or substrate in control reactions.

Regarding `NO` [HA, hydroxylamine], the S. aureus growth result was “does not inhibit the growth” in series [1] and “not effected” in series [1] (listed as Hydroxylamine).
On to `OO` [hydrogen peroxide, Hydrogen peroxide], for which, in series [2], the “concentration toxic to the host cells” value was more than 3%.
As for glucose oxidase, in series [3] (20 mM NaCl, pH 4.0), the “absorbance of thionin at 598 nm, after two minutes” value was 0.670. In addition, in series [3] (thionin/NaCl solution, two minutes), the “color change of thionin” value is listed as “no color change was observed”.
